Reference: US20220211732A1, “PREBIOTIC COMPOSITIONS” (Evonik Operations GmbH, priority 2019, published 2022)

Assays:
[1] = system: human intestinal microbiota; assay: SCFA production after omega-3 amino acid salts and controls (Example 2); type: cell-based; conditions: salts 1.4 mg/ml, FFA 0.96, Lys 0.49, Arg 0.52, Orn 0.5 mg/ml; for Acetate, change compared to control / Propionate, change compared to control / n-Butyrate, change compared to control: triplicates
Method: (§1) To determine the effect of a EPA/DHA lysine salt (EPA/DHA-Lys) on adult colonic microbiota, an intestinal screening model was used (I-screen, TNO, the Netherlands). Therefore, the I-screen model was inoculated with standard human adult fecal microbiota material, which consisted of pooled fecal donations from six healthy adult volunteers (Caucasian, European lifestyle and nutrition). The fecal material was mixed and grown in a fed-batch fermenter for 40 hours to create a standardized microbiota as described previously.
(§2) The intestinal microbiota was cultured in vitro in modified standard ileal efflux medium (SIEM), the composition of which was described by Minekus et al.. All components were supplied by Trititium Microbiology (Veldhoven, The Netherlands). The pH of the medium was adjusted to 5.8.
(§3) For the I-screen fermentations, the pre-cultured standardized fecal inoculum was diluted 50 times in modified SIEM. EPA/DHA-Lys was introduced into the I-screen to final concentrations of 1.4 mg/ml and 1.5 mg/ml, respectively; omega-3 ethyl ester and fish oil at 1.4 mg/ml each. Inulin was added as a control at a final concentration of 4 mg/ml. […] All experiments were carried out in triplicates.
(§4) For the analysis of short-chain fatty acids in exposed material from the I-screen, samples were centrifuged (˜4000 g, 5 min), clear supernatant was filter sterilized (0.45 μm) and a mixture of formic acid (20%), methanol and 2-ethyl butyric acid (internal standard, 2 mg/ml in methanol) was added.
The effects of different omega-3 amino acid salts omega-3-lysine (omega-3-lys), omega-3-arginine (omega-3-arg) and omega-3-ornithine (omega-3-orn) and their respective controls (free fatty acids (FFA), amino acids lysine (lys), arginine (arg) and ornithine (orn)) on SCFA production by an intestinal microbiota were analyzed.

[2] = in vivo; cited from earlier work
human fecal microbiota 1 = assay: TIM-2 in vitro colon model, SCFA production, microbiota 1 (Example 3); type: cell-based; conditions: for Cumulative production of acetate / Cumulative production of butyrate / Cumulative production of propionate: lumen and dialysate, duplicates
From the text: To confirm the results for omega-3 amino acid salts, using omega-3 lysine as an example, an additional, independent and more advanced model of fermentation by the human colonic microbiota was applied, the TIM-2 model. Next to omega-3 lysine the prebiotic carbohydrate L-rhamnose was also applied. TIM-2 is an abbreviation of TNO's in vitro model-2, an advanced dynamic, computer-controlled in vitro model of the adult human colon. TIM-2 simulates to a high degree the successive dynamic processes in the colon and is predictive for what happens in human individuals. The following in vivo conditions are simulated in this model: body temperature, pH in the lumen, composition and rate of secretion, delivery of a pre-digested substrate from the ‘ileum’ (SIEM), mixing and transport of the intestinal contents, absorption of water and microbial metabolites and presence of a complex, high density, metabolically active, anaerobic fecal microbiota of human origin. The model was set-up and inoculated with the microbiota on the first day. Following an overnight adaptation period in SIEM, the test-products were fed at final concentrations of 1.4 mg/ml EPA/DHA-Lys or 1 mg/ml L-rhamnose in SIEM during an intervention period of 72 hrs. Cultivation in SIEM without any additional substance served as control condition. Samples were taken from the lumen and the dialysate every 24 hrs (t0, t24, t48 and t72) to study the metabolic activity of the gut microbiota (SCFA production) and changes in composition of the gut microbiota (16S rRNA gene analysis). Samples were analyzed for SCFA by ion-chromatography. […] The order of Pr/Ac for the 72 h treatments is control (SIEM)<L-rhamnose<EPA/DHA-Lys (ω-3)<L-rhamnose+EPA/DHA-Lys (ω-3).

[3] = cited from earlier work
human fecal microbiota 2 = assay: TIM-2 in vitro colon model, SCFA production, microbiota 2 (Example 6); type: cell-based; conditions: for Cumulative production of acetate / Cumulative production of butyrate / Cumulative production of propionate: lumen and dialysate, duplicates
From the text: TIM-2 is an abbreviation of TNO's in vitro model-2, an advanced dynamic, computer-controlled in vitro model of the adult human colon. TIM-2 simulates to a high degree the successive dynamic processes in the colon and is predictive for what happens in human individuals. The following in vivo conditions are simulated in this model: body temperature, pH in the lumen, composition and rate of secretion, delivery of a pre-digested substrate from the ‘ileum’ (SIEM), mixing and transport of the intestinal contents, absorption of water and microbial metabolites and presence of a complex, high density, metabolically active, anaerobic fecal microbiota of human origin.
The model was set-up and inoculated with the microbiota on the first day. Following an overnight adaptation period in SIEM, the test-products were fed at final concentrations of 1.4 mg/ml EPA/DHA-Lys or 1 mg/ml L-rhamnose in SIEM during an intervention period of 72 hrs. Cultivation in SIEM without any additional substance served as control condition.
Samples were taken from the lumen and the dialysate every 24 hrs (t0, t24, t48 and t72) to study the metabolic activity of the gut microbiota (SCFA production) and changes in composition of the gut microbiota (16S rRNA gene analysis).
Samples were analyzed for SCFA by ion-chromatography.
A second TIM-2 study was performed, using conditions as described under Example 3 but applying a different human fecal microbiota (termed microbiota 2), to assess whether the observed effects are dependent on the initial microbiota composition.
T1=EPA/DHA-Lys (ω-3); T2=L-rhamnose.

human fecal microbiota = assay: I-screen intestinal screening model, SCFA production (Example 1); type: cell-based; conditions: 24 h incubation, mean of triplicates
Method: as §1, with “previously. These standard adult gut microbiota sets were stored at −80° C. in 12% glycerol.” for “previously.”
as §2, §3, §4

N=C(N)NCCC[C@H](N)C(=O)O [Arg, L-arginine]
Propionate/acetate ratio [1]: 0.40
Acetate, change compared to control [1]: +8.29 mM
Propionate, change compared to control [1]: +2.02 mM
n-Butyrate, change compared to control [1]: +0.71 mM

NCCCC[C@H](N)C(=O)O [Lys, L-lysine]
Propionate/acetate ratio [1]: 0.40
Acetate, change compared to control [1]: +8.81 mM
Propionate, change compared to control [1]: +2.12 mM
n-Butyrate, change compared to control [1]: +0.29 mM

NCCC[C@H](N)C(=O)O [Orn, L-ornithine]
Propionate/acetate ratio [1]: 0.36
Acetate, change compared to control [1]: +10.15 mM
Propionate, change compared to control [1]: +1.74 mM
n-Butyrate, change compared to control [1]: +0.19 mM

CC(=O)O [acetate]
Systemic availability of colonic SCFA [2]: ~36%

CCCC(=O)O [butyrate]
Systemic availability of colonic SCFA [2]: ~2%

C[C@H](O)[C@H](O)[C@@H](O)[C@@H](O)C=O [rhamnose, L-rhamnose]
Cumulative production of acetate (human fecal microbiota 1; 0 h): 0.00 mmol
Cumulative production of butyrate (human fecal microbiota 1; 0 h): 0.00 mmol
Cumulative production of propionate (human fecal microbiota 1; 0 h): 0.00 mmol
Pr/Ac (propionate-to-acetate ratio) (human fecal microbiota 1; 24 h): 0.57
Cumulative production of acetate (human fecal microbiota 1; 24 h): 25.30 mmol
Cumulative production of butyrate (human fecal microbiota 1; 24 h): 15.69 mmol
Cumulative production of propionate (human fecal microbiota 1; 24 h): 14.30 mmol
Pr/Ac (propionate-to-acetate ratio) (human fecal microbiota 1; 48 h): 0.56
Cumulative production of acetate (human fecal microbiota 1; 48 h): 56.28 mmol
Cumulative production of butyrate (human fecal microbiota 1; 48 h): 35.02 mmol
Cumulative production of propionate (human fecal microbiota 1; 48 h): 31.64 mmol
Pr/Ac (propionate-to-acetate ratio) (human fecal microbiota 1; 72 h): 0.56
Cumulative production of acetate (human fecal microbiota 1; 72 h): 81.62 mmol
Cumulative production of butyrate (human fecal microbiota 1; 72 h): 52.10 mmol
Cumulative production of propionate (human fecal microbiota 1; 72 h): 45.41 mmol
Ratio of SCFA: acetate as percentage of acetate + propionate + butyrate (human fecal microbiota 1; microbiota 1, average): 51.1%
Ratio of SCFA: butyrate as percentage of acetate + propionate + butyrate (human fecal microbiota 1; microbiota 1, average): 28.1%
Ratio of SCFA: propionate as percentage of acetate + propionate + butyrate (human fecal microbiota 1; microbiota 1, average): 20.8%
Circulating propionate after L-rhamnose ([3]; acute intake of 25 g L-rhamnose): significant increase
Serum propionate after L-rhamnose ([3]; up to 25.5 g L-rhamnose/day for seven days): no increase
Cumulative production of acetate (human fecal microbiota 2; 0 h): 0.00 mmol
Cumulative production of butyrate (human fecal microbiota 2; 0 h): 0.00 mmol
Cumulative production of propionate (human fecal microbiota 2; 0 h): 0.00 mmol
Pr/Ac (propionate-to-acetate ratio) (human fecal microbiota 2; 24 h): 0.57
Cumulative production of acetate (human fecal microbiota 2; 24 h): 25.30 mmol
Cumulative production of butyrate (human fecal microbiota 2; 24 h): 15.69 mmol
Cumulative production of propionate (human fecal microbiota 2; 24 h): 14.30 mmol
Pr/Ac (propionate-to-acetate ratio) (human fecal microbiota 2; 48 h): 0.56
Cumulative production of acetate (human fecal microbiota 2; 48 h): 56.28 mmol
Cumulative production of butyrate (human fecal microbiota 2; 48 h): 35.02 mmol
Cumulative production of propionate (human fecal microbiota 2; 48 h): 31.64 mmol
Pr/Ac (propionate-to-acetate ratio) (human fecal microbiota 2; 72 h): 0.56
Cumulative production of acetate (human fecal microbiota 2; 72 h): 81.62 mmol
Cumulative production of butyrate (human fecal microbiota 2; 72 h): 52.10 mmol
Cumulative production of propionate (human fecal microbiota 2; 72 h): 45.41 mmol
Ratio of SCFA: acetate as percentage of acetate + propionate + butyrate (human fecal microbiota 2; microbiota 2, average): 45.7%
Ratio of SCFA: butyrate as percentage of acetate + propionate + butyrate (human fecal microbiota 2; microbiota 2, average): 29.0%
Ratio of SCFA: propionate as percentage of acetate + propionate + butyrate (human fecal microbiota 2; microbiota 2, average): 25.3%

Inulin
n-Butyrate, change compared to control (human fecal microbiota): +0.46 mM
Propionate, change compared to control (human fecal microbiota; controls ~8 mM propionate): +0.03 mM
Acetate, change compared to control (human fecal microbiota; controls ~40 mM acetate): +5.87 mM
